In PubChem BioAssay (NCI):
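Exposure lasted 48 hours, with cells grown in 96-well plates and compounds tested at five concentrations. TGI marks complete inhibition of growth.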

How the values were obtained:
Experiment in all cases: inhibition of tumour cell growth, NCI panel, 48 h
CAKI-1 renal = system: CAKI-1 renal
MCF7 breast = system: MCF7 breast
KM12 colon = system: KM12 colon
K-562 leukemia = system: K-562 leukemia
SF-268 CNS = system: SF-268 CNS
786-0 renal = system: 786-0 renal
ACHN renal = system: ACHN renal
SNB-19 CNS = system: SNB-19 CNS
SF-539 CNS = system: SF-539 CNS
HT29 colon = system: HT29 colon
PC-3 prostate = system: PC-3 prostate
SK-MEL-28 melanoma = system: SK-MEL-28 melanoma
NCI-H23 lung = system: NCI-H23 lung
SF-295 CNS = system: SF-295 CNS
OVCAR-8 ovarian = system: OVCAR-8 ovarian
LOX IMVI melanoma = system: LOX IMVI melanoma
M14 melanoma = system: M14 melanoma
NCI-H460 lung = system: NCI-H460 lung
OVCAR-4 ovarian = system: OVCAR-4 ovarian
OVCAR-3 ovarian = system: OVCAR-3 ovarian
HL-60(TB) leukemia = system: HL-60(TB) leukemia
SK-MEL-2 melanoma = system: SK-MEL-2 melanoma
SW-620 colon = system: SW-620 colon
EKVX NSCLC = system: EKVX NSCLC
T-47D breast = system: T-47D breast
RPMI-8226 leukemia = system: RPMI-8226 leukemia
U251 CNS = system: U251 CNS
SNB-75 CNS = system: SNB-75 CNS
NCI-H522 lung = system: NCI-H522 lung
SR leukemia = system: SR leukemia
NCI-H226 lung = system: NCI-H226 lung
HOP-62 NSCLC = system: HOP-62 NSCLC
A498 renal = system: A498 renal
SN12C renal = system: SN12C renal
A549 NSCLC = system: A549 NSCLC
OVCAR-5 ovarian = system: OVCAR-5 ovarian
BT-549 breast = system: BT-549 breast
MALME-3M melanoma = system: MALME-3M melanoma
UO-31 renal = system: UO-31 renal
HCT-116 colon = system: HCT-116 colon
DU-145 prostate = system: DU-145 prostate
HCT-15 colon = system: HCT-15 colon
UACC-62 melanoma = system: UACC-62 melanoma
RXF 393 renal = system: RXF 393 renal
IGROV1 ovarian = system: IGROV1 ovarian
HOP-92 NSCLC = system: HOP-92 NSCLC
HS 578T breast = system: HS 578T breast
CCRF-CEM leukemia = system: CCRF-CEM leukemia
UACC-257 melanoma = system: UACC-257 melanoma
MDA-MB-231 breast = system: MDA-MB-231 breast
NCI/ADR-RES ovarian = system: NCI/ADR-RES ovarian
MOLT-4 leukemia = system: MOLT-4 leukemia
TK-10 renal = system: TK-10 renal
COLO 205 colon = system: COLO 205 colon
MDA-MB-435 = system: MDA-MB-435
SK-OV-3 ovarian = system: SK-OV-3 ovarian

For `Cc1ccc2nc3ccccc3c(C3C4C(=O)N(c5ccc(F)cc5)C(=O)C4ON3C(C(N)=O)c3ccccc3)c2c1` (stereo unspecified), the TGI (CAKI-1 renal) was > 100 µM, the TGI (MCF7 breast) was 80.8 µM and the TGI (KM12 colon) was > 100 µM. For the same compound, the TGI (K-562 leukemia) was > 100 µM, the TGI (SF-268 CNS) was > 100 µM and the TGI (786-0 renal) was > 100 µM. For the same compound, the TGI (ACHN renal) was > 100 µM, the TGI (SNB-19 CNS) was > 100 µM and the TGI (SF-539 CNS) was 72.1 µM. The TGI (HT29 colon) was > 100 µM, the TGI (PC-3 prostate) was > 100 µM and the TGI (SK-MEL-28 melanoma) was > 100 µM. For the same compound, the TGI (NCI-H23 lung) was > 100 µM, the TGI (SF-295 CNS) was > 100 µM and the TGI (OVCAR-8 ovarian) was > 100 µM. The TGI (LOX IMVI melanoma) was > 100 µM, the TGI (M14 melanoma) was > 100 µM and the TGI (NCI-H460 lung) was > 100 µM. For the same compound, the TGI (OVCAR-4 ovarian) was > 100 µM, the TGI (OVCAR-3 ovarian) was 71.6 µM and the TGI (HL-60(TB) leukemia) was > 100 µM. For the same compound, the TGI (SK-MEL-2 melanoma) was > 100 µM, the TGI (SW-620 colon) was > 100 µM and the TGI (EKVX NSCLC) was > 100 µM. The TGI (T-47D breast) was > 100 µM, the TGI (RPMI-8226 leukemia) was 77.6 µM and the TGI (U251 CNS) was > 100 µM. For the same compound, the TGI (SNB-75 CNS) was > 100 µM, the TGI (NCI-H522 lung) was 57.8 µM and the TGI (SR leukemia) was > 100 µM. For the same compound, the TGI (NCI-H226 lung) was > 100 µM, the TGI (HOP-62 NSCLC) was > 100 µM and the TGI (A498 renal) was > 100 µM. For the same compound, the TGI (SN12C renal) was > 100 µM, the TGI (A549 NSCLC) was > 100 µM and the TGI (OVCAR-5 ovarian) was > 100 µM. The TGI (BT-549 breast) was > 100 µM, the TGI (MALME-3M melanoma) was 80.7 µM and the TGI (UO-31 renal) was > 100 µM. For the same compound, the TGI (HCT-116 colon) was > 100 µM, the TGI (DU-145 prostate) was > 100 µM and the TGI (HCT-15 colon) was > 100 µM. For the same compound, the TGI (UACC-62 melanoma) was > 100 µM, the TGI (RXF 393 renal) was > 100 µM and the TGI (IGROV1 ovarian) was > 100 µM. For the same compound, the TGI (HOP-92 NSCLC) was > 100 µM, the TGI (HS 578T breast) was > 100 µM and the TGI (CCRF-CEM leukemia) was > 100 µM. For the same compound, the TGI (UACC-257 melanoma) was > 100 µM, the TGI (MDA-MB-231 breast) was > 100 µM and the TGI (NCI/ADR-RES ovarian) was 90.2 µM. For the same compound, the TGI (MOLT-4 leukemia) was > 100 µM, the TGI (TK-10 renal) was > 100 µM and the TGI (COLO 205 colon) was 35.7 µM. The TGI (MDA-MB-435) was 99 µM and the TGI (SK-OV-3 ovarian) was > 100 µM.
